In ChEMBL document CHEMBL3861943 (Medchemcomm, 2016):

Legend:
[1] = Cytotoxicity against human HCT116 cells assessed as decrease in cell proliferation after 72 hrs by MTT reduction assay; format: functional, cell-based; details: HCT-116, 72 h
[2] = Cytotoxicity against human BxPC3 cells assessed as decrease in cell proliferation after 72 hrs by MTT reduction assay; format: functional, cell-based; details: BXPC-3, 72 h
[3] = Cytotoxicity against human WI38 cells assessed as decrease in cell proliferation after 72 hrs by MTT reduction assay; format: toxicity, cell-based, WI-38
[4] = molecular target: Dihydroorotate dehydrogenase (quinone), mitochondrial (Homo sapiens, UniProt Q02127); test: Inhibition of recombinant human DHODH by DCIP-based assay; format: single protein
[5] = test system: HCT-116; test: Induction of apoptosis in human HCT116 cells assessed as early apoptotic cells at 0.2 uM after 24 hrs by annexin V-FITC/propidium iodide staining-based flow cytometric method (reference value: 2.25%); format: functional
[6] = test system: HCT-116; test: Induction of apoptosis in human HCT116 cells assessed as late apoptotic cells at 0.2 uM after 24 hrs by annexin V-FITC/propidium iodide staining-based flow cytometric method (reference value: 3.84%); format: functional
[7] = test system: HCT-116; test: Induction of apoptosis in human HCT116 cells assessed as necrotic cells at 0.2 uM after 24 hrs by annexin V-FITC/propidium iodide staining-based flow cytometric method (reference value: 2.14%); format: functional
[8] = test system: HCT-116; test: Induction of apoptosis in human HCT116 cells assessed as viable cells at 0.2 uM after 24 hrs by annexin V-FITC/propidium iodide staining-based flow cytometric method (reference value: 91.8%); format: functional; details: HCT-116, 24 h, read-out: Activity
[9] = test system: HCT-116; test: Induction of apoptosis in human HCT116 cells assessed as early apoptotic cells at 0.2 uM after 36 hrs by annexin V-FITC/propidium iodide staining-based flow cytometric method (reference value: 2.25%); format: functional
[10] = test system: HCT-116; test: Induction of apoptosis in human HCT116 cells assessed as late apoptotic cells at 0.2 uM after 36 hrs by annexin V-FITC/propidium iodide staining-based flow cytometric method (reference value: 3.84%); format: functional
[11] = test system: HCT-116; test: Induction of apoptosis in human HCT116 cells assessed as necrotic cells at 0.2 uM after 36 hrs by annexin V-FITC/propidium iodide staining-based flow cytometric method (reference value: 2.14%); format: functional
[12] = test system: HCT-116; test: Induction of apoptosis in human HCT116 cells assessed as viable cells at 0.2 uM after 36 hrs by annexin V-FITC/propidium iodide staining-based flow cytometric method (reference value: 91.8%); format: functional; details: HCT-116, 36 h, read-out: Activity
[13] = test system: HCT-116; test: Induction of apoptosis in human HCT116 cells assessed as early apoptotic cells at 0.2 uM after 48 hrs by annexin V-FITC/propidium iodide staining-based flow cytometric method (reference value: 2.25%); format: functional
[14] = test system: HCT-116; test: Induction of apoptosis in human HCT116 cells assessed as late apoptotic cells at 0.2 uM after 48 hrs by annexin V-FITC/propidium iodide staining-based flow cytometric method (reference value: 3.84%); format: functional
[15] = test system: HCT-116; test: Induction of apoptosis in human HCT116 cells assessed as necrotic cells at 0.2 uM after 48 hrs by annexin V-FITC/propidium iodide staining-based flow cytometric method (reference value: 2.14%); format: functional
[16] = test system: HCT-116; test: Induction of apoptosis in human HCT116 cells assessed as viable cells at 0.2 uM after 48 hrs by annexin V-FITC/propidium iodide staining-based flow cytometric method (reference value: 91.8%); format: functional; details: HCT-116, 48 h, read-out: Activity
[17] = test system: BXPC-3; test: Induction of apoptosis in human BxPC3 cells assessed as early apoptotic cells at 0.2 uM after 24 hrs by annexin V-FITC/propidium iodide staining-based flow cytometric method (reference value: 0.344%); format: functional
[18] = test system: BXPC-3; test: Induction of apoptosis in human BxPC3 cells assessed as late apoptotic cells at 0.2 uM after 24 hrs by annexin V-FITC/propidium iodide staining-based flow cytometric method (reference value: 6.73%); format: functional
[19] = test system: BXPC-3; test: Induction of apoptosis in human BxPC3 cells assessed as necrotic cells at 0.2 uM after 24 hrs by annexin V-FITC/propidium iodide staining-based flow cytometric method (reference value: 1.15%); format: functional
[20] = test system: BXPC-3; test: Induction of apoptosis in human BxPC3 cells assessed as viable cells at 0.2 uM after 24 hrs by annexin V-FITC/propidium iodide staining-based flow cytometric method (reference value: 91.8%); format: functional; details: BXPC-3, 24 h, read-out: Activity
[21] = test system: BXPC-3; test: Induction of apoptosis in human BxPC3 cells assessed as early apoptotic cells at 0.2 uM after 36 hrs by annexin V-FITC/propidium iodide staining-based flow cytometric method (reference value: 0.344%); format: functional
[22] = test system: BXPC-3; test: Induction of apoptosis in human BxPC3 cells assessed as late apoptotic cells at 0.2 uM after 36 hrs by annexin V-FITC/propidium iodide staining-based flow cytometric method (reference value: 6.73%); format: functional
[23] = test system: BXPC-3; test: Induction of apoptosis in human BxPC3 cells assessed as necrotic cells at 0.2 uM after 36 hrs by annexin V-FITC/propidium iodide staining-based flow cytometric method (reference value: 1.15%); format: functional
[24] = test system: BXPC-3; test: Induction of apoptosis in human BxPC3 cells assessed as viable cells at 0.2 uM after 36 hrs by annexin V-FITC/propidium iodide staining-based flow cytometric method (reference value: 91.8%); format: functional; details: BXPC-3, 36 h, read-out: Activity
[25] = test system: BXPC-3; test: Induction of apoptosis in human BxPC3 cells assessed as early apoptotic cells at 0.2 uM after 48 hrs by annexin V-FITC/propidium iodide staining-based flow cytometric method (reference value: 0.344%); format: functional
[26] = test system: BXPC-3; test: Induction of apoptosis in human BxPC3 cells assessed as late apoptotic cells at 0.2 uM after 48 hrs by annexin V-FITC/propidium iodide staining-based flow cytometric method (reference value: 6.73%); format: functional
[27] = test system: BXPC-3; test: Induction of apoptosis in human BxPC3 cells assessed as necrotic cells at 0.2 uM after 48 hrs by annexin V-FITC/propidium iodide staining-based flow cytometric method (reference value: 1.15%); format: functional
[28] = test system: BXPC-3; test: Induction of apoptosis in human BxPC3 cells assessed as viable cells at 0.2 uM after 48 hrs by annexin V-FITC/propidium iodide staining-based flow cytometric method (reference value: 91.8%); format: functional; details: BXPC-3, 48 h, read-out: Activity

Chain of Dihydroorotate dehydrogenase (quinone), mitochondrial (Q02127 whole entry): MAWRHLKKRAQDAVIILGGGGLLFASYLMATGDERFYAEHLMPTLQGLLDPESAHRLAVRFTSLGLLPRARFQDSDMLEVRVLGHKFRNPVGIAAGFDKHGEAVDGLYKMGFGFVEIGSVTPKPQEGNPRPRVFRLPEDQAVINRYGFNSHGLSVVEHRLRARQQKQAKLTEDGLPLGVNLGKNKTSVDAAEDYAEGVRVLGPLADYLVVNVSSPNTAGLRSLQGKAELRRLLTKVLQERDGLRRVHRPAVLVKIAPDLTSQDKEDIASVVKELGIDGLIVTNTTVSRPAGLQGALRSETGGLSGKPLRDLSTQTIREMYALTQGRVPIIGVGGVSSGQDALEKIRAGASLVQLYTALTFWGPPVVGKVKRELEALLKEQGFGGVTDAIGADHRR

Cc1sc(N/N=C/c2ccccc2C(=O)O)nc1-c1ccccc1Cl
IC50 [1]: 375 nM | IC50 [2]: 2970 nM | IC50 at 72 h [3]: 44600 nM

CCCC(C)N(/N=C/c1ccccc1C(=O)O)c1nc(-c2ccccc2Cl)c(C)s1 (centres undefined)
IC50 [1]: 181 nM | IC50 [2]: 801 nM | IC50 at 72 h [3]: 10100 nM

O=C(O)c1ccccc1/C=N/Nc1nc(-c2ccccc2Cl)cs1
IC50 [4]: 29 nM | IC50 [1]: 713 nM | IC50 [2]: 3410 nM | IC50 at 72 h [3]: 39100 nM

O=C(O)c1ccccc1/C=N/N(CCO)c1nc(-c2ccccc2Cl)cs1
IC50 [4]: 425 nM | IC50 [1]: 763 nM | IC50 [2]: 4320 nM | IC50 at 72 h [3]: 48700 nM

CCCN(/N=C/c1ccccc1C(=O)O)c1nc(-c2ccccc2Cl)cs1
IC50 [4]: 9 nM | IC50 [1]: 276 nM | IC50 [2]: 263 nM | IC50 at 72 h [3]: 10800 nM

CCN(/N=C/c1ccccc1C(=O)O)c1nc(-c2ccccc2Cl)cs1
IC50 [4]: 59 nM | IC50 [1]: 299 nM | IC50 [2]: 199 nM | IC50 at 72 h [3]: 9980 nM

CN(/N=C/c1ccccc1C(=O)O)c1nc(-c2cccc(Cl)c2)cs1
IC50 [1]: 268 nM | IC50 [2]: 1590 nM | IC50 at 72 h [3]: 6570 nM

CCc1sc(N/N=C/c2ccccc2C(=O)O)nc1-c1ccccc1Cl
IC50 [1]: 922 nM | IC50 [2]: 2790 nM | IC50 at 72 h [3]: 22400 nM

Cc1ccc(/C=N/N(C)c2nc(-c3ccccc3Cl)cs2)c(C(=O)O)c1
IC50 [4]: 8 nM | IC50 [1]: 54 nM | IC50 [2]: 203 nM | IC50 at 72 h [3]: 17000 nM

CCCC(C)N(/N=C/c1ccccc1C(=O)O)c1nc(-c2ccccc2Cl)cs1 (centres undefined)
IC50 [1]: 588 nM | IC50 [2]: 988 nM | IC50 at 72 h [3]: 29100 nM

CCC(C)N(/N=C/c1ccccc1C(=O)O)c1nc(-c2ccccc2Cl)cs1 (centres undefined)
IC50 [4]: 24 nM | IC50 [1]: 244 nM | IC50 [2]: 536 nM | IC50 at 72 h [3]: 8300 nM

Cc1ccc(/C=N/N(C)c2nc(-c3ccccc3)c(C)s2)c(C(=O)O)c1
IC50 [1]: 87 nM | IC50 [2]: 300 nM | IC50 at 72 h [3]: 41800 nM

CC(C)N(/N=C/c1ccccc1C(=O)O)c1nc(-c2ccccc2Cl)cs1
IC50 [4]: 93 nM | IC50 [1]: 108 nM | IC50 [2]: 312 nM | IC50 at 72 h [3]: 18800 nM

CN(/N=C/c1ccccc1C(=O)O)c1nc(-c2cc(Cl)ccc2Cl)cs1
IC50 [1]: 301 nM | IC50 [2]: 1610 nM | IC50 at 72 h [3]: 61000 nM

O=C(O)c1ccccc1/C=N/Nc1nc(-c2ccccc2)cs1
IC50 [4]: 139 nM | IC50 [1]: 880 nM | IC50 [2]: 18900 nM | IC50 at 72 h [3]: 34200 nM

CN(/N=C/c1ccc(C(F)(F)F)cc1C(=O)O)c1nc(-c2ccccc2Cl)cs1
IC50 [1]: 2000 nM | IC50 [2]: 2980 nM | IC50 at 72 h [3]: 60900 nM

CN(/N=C/c1ccc(F)cc1C(=O)O)c1nc(-c2ccccc2Cl)cs1
IC50 [4]: 2 nM | IC50 [1]: 23 nM | IC50 [2]: 88 nM | IC50 at 72 h [3]: 29700 nM | Activity [5]: 3.11% | Activity [6]: 3.11% | Activity [7]: 1.78% | viability at 0.2 µM [8]: 92% | Activity [9]: 4.54% | Activity [10]: 7.5% | Activity [11]: 1.46% | viability at 0.2 µM [12]: 86.5% | Activity [13]: 4.59% | Activity [14]: 25.4% | Activity [15]: 1.67% | viability at 0.2 µM [16]: 68.3% | Activity [17]: 1.01% | Activity [18]: 15.4% | Activity [19]: 3.23% | viability at 0.2 µM [20]: 80.4% | Activity [21]: 0.701% | Activity [22]: 52.6% | Activity [23]: 7.38% | viability at 0.2 µM [24]: 39.3% | Activity [25]: 0.392% | Activity [26]: 93.2% | Activity [27]: 1.59% | viability at 0.2 µM [28]: 4.8%

Cc1sc(N/N=C/c2ccccc2C(=O)O)nc1-c1ccccc1
IC50 [1]: 6420 nM | IC50 [2]: 19800 nM | IC50 at 72 h [3]: 21500 nM

CN(/N=C/c1ccccc1C(=O)O)c1nc(-c2ccccc2Cl)cs1
IC50 [4]: 8 nM | IC50 [1]: 31 nM | IC50 [2]: 80 nM | IC50 at 72 h [3]: 9580 nM

Cc1c(-c2ccc(-c3ccccc3F)cc2)nc2ccc(F)cc2c1C(=O)O [BREQUINAR SODIUM]
IC50 [1]: 158 nM | IC50 [2]: 940 nM | IC50 at 72 h [3]: 34000 nM
